US11058688B2, “Imidazopiperazine inhibitors of transcription activating proteins” (Board of Regents, The University of Texas System, priority 2018, dated 2021)

What was measured:
[1] = target: BRD4(49-170) bromodomain (Homo sapiens (Human), UniProt O60885); experiment: BRD4 AlphaScreen Assay; details: binding to biotin-H4(1-21) Ac-K5/8/12/16 peptide
Experimental: (§1) Specific binding of the CBP or BRD4 bromodomain to the acetylated peptide derived from the H4 histone substrate (tetra acetylated H4(1-21) Ac-K5/8/12/16) was measured in absence or presence of inhibitors.
(§2) The standard dose response curves were fitted by Genedata Screener software using the variable-slope model: Signal=Signalnegative control+(SignalDMSO control−Signalnegative control)/(1+(IC50/Dose)^Hill slope).
(§3) Only Signal and Dose in the equation were treated as known values.

[2] = target: GST-CBP(1081-1197) bromodomain (Homo sapiens (Human), UniProt Q92793); experiment: CBP AlphaScreen Assay; details: binding to biotin-H4(1-21) Ac-K5/8/12/16 peptide
Sequence of GST-CBP(1081-1197) bromodomain (Q92793 1081-1197): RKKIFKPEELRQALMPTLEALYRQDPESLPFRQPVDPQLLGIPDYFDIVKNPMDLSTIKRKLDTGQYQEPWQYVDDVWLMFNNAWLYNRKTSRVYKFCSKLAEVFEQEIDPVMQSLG
Experimental: as §1, §2, §3

IC50 [1]	IC50 [2]	Structure (SMILES)
> 25 µM	4490 nM	CC(=O)N1CCn2c(C3CC3)nc(-c3cnc(N)c(OC(F)(F)F)c3)c2C1 [Example 41, 1-(1-(6-amino-5-(trifluoromethoxy)pyridin-3-yl)-3-cyclopropyl-5,6-dihydroimidazo[1,5-a]pyrazin-7(8H)-yl)ethan-1-one]
> 25 µM	4260 nM	COc1ccc(-c2nc(C3CC3)n3c2CN(C(C)=O)CC3)cc1OC [Example 42, 1-(3-cyclopropyl-1-(3,4-dimethoxyphenyl)-5,6-dihydroimidazo[1,5-a]pyrazin-7(8H)-yl)ethan-1-one]
> 25 µM	3190 nM	CC(=O)N1CCn2c(C3CC3)nc(-c3ccc4c(cnn4C)c3)c2C1 [Example 43, 1-(3-cyclopropyl-1-(1-methyl-1H-indazol-5-yl)-5,6-dihydroimidazol[1,5-a]pyrazin-7(8H)-yl)ethan-1-one]
12.1 µM	47 nM	CC(=O)N1CCn2c(C3CC3)nc(-c3ccc4c(c3)c(-c3cnn(C)c3)nn4C)c2C1 [Example 44, 1-(3-cyclopropyl-1-(1-methyl-3-(1-methyl-1H-pyrazol-4-yl)-1H-indazol-5-yl)-5,6-dihydroimidazo[1,5-a]pyrazin-7(8H)-yl)ethan-1-one]
6.29 µM	124 nM	CC(=O)N1CCn2c(C3CCOC3)nc(-c3ccc4c(c3)c(-c3cnn(C)c3)nn4C)c2C1 (stereo not shown) [Example 45, 1-(1-(1-methyl-3-(1-methyl-1H-pyrazol-4-yl)-1H-indazol-5-yl)-3-(tetrahydrofuran-3-yl)-5,6-dihydroimidazo[1,5-a]pyrazin-7(8H)-yl)ethan-1-one]
> 10 µM	52 nM	CC(=O)N1CCn2c(C3CCC3)nc(-c3ccc4c(c3)c(-c3cnn(C)c3)nn4C)c2C1 [Example 46, 1-(3-cyclobutyl-1-(1-methyl-3-(1-methyl-1H-pyrazol-4-yl)-1H-indazol-5-yl)-5,6-dihydroimidazo[1,5-a]pyrazin-7(8H)-yl)ethan-1-one]
> 10 µM	153 nM	CC(=O)N1CCn2c(C)nc(-c3ccc4c(c3)c(-c3cnn(C)c3)nn4C)c2C1 [Example 47, 1-(3-methyl-1-(1-methyl-3-(1-methyl-1H-pyrazol-4-yl)-1H-indazol-5-yl)-5,6-dihydroimidazo[1,5-a]pyrazin-7(8H)-yl)ethan-1-one]
> 10 µM	36 nM	CNC(=O)N1CCn2c(C)nc(-c3ccc4c(c3)c(-c3cnn(C)c3)nn4C)c2C1 [Example 48, N,3-dimethyl-1-(1-methyl-3-(1-methyl-1H-pyrazol-4-yl)-1H-indazol-5-yl)-5,6-dihydroimidazo[1,5-a]pyrazine-7(8H)-carboxamide]
> 10 µM	67 nM	CC(=O)N1CCn2c(C(C)C)nc(-c3ccc4c(c3)c(-c3cnn(C)c3)nn4C)c2C1 [Example 49, 1-(3-isopropyl-1-(1-methyl-3-(1-methyl-1H-pyrazol-4-yl)-1H-indazol-5-yl)-5,6-dihydroimidazo[1,5-a]pyrazin-7(8H)-yl)ethan-1-one]
> 10 µM	12 nM	CNC(=O)N1CCn2c(C(C)C)nc(-c3ccc4c(c3)c(-c3cnn(C)c3)nn4C)c2C1 [Example 50, 3-isopropyl-N-methyl-1-(1-methyl-3-(1-methyl-1H-pyrazol-4-yl)-1H-indazol-5-yl)-5,6-dihydroimidazo[1,5-a]pyrazine-7(8H)-carboxamide]
> 10 µM	149 nM	CC(=O)N1CCn2c(C3CCNCC3)nc(-c3ccc4c(c3)c(-c3cnn(C)c3)nn4C)c2C1 [Example 51, 1-(1-(1-methyl-3-(1-methyl-1H-pyrazol-4-yl)-1H-indazol-5-yl)-3-(piperidin-4-yl)-5,6-dihydroimidazo[1,5-a]pyrazin-7(8H)-yl)ethan-1-one]
> 10 µM	20 nM	CNC(=O)N1CCn2c(C3CCNCC3)nc(-c3ccc4c(c3)c(-c3cnn(C)c3)nn4C)c2C1 [Example 52, N-methyl-1-(1-methyl-3-(1-methyl-1H-pyrazol-4-yl)-1H-indazol-5-yl)-3-(piperidin-4-yl)-5,6-dihydroimidazo[1,5-a]pyrazine-7(8H)-carboxamide]
> 10 µM	176 nM	CC(=O)N1CCC(c2nc(-c3ccc4c(c3)c(-c3cnn(C)c3)nn4C)c3n2CCN(C(C)=O)C3)CC1 [Example 53, 1-(4-(7-acetyl-1-(1-methyl-3-(1-methyl-1H-pyrazol-4-yl)-1H-indazol-5-yl)-5,6,7,8-tetrahydroimidazo[1,5-a]pyrazin-3-yl)piperidin-1-yl)ethan-1-one]
> 10 µM	141 nM	CC(=O)N1CCn2c(C3CCN(C)CC3)nc(-c3ccc4c(c3)c(-c3cnn(C)c3)nn4C)c2C1 [Example 54, 1-(1-(1-methyl-3-(1-methyl-1H-pyrazol-4-yl)-1H-indazol-5-yl)-3-(1-methylpiperidin-4-yl)-5,6-dihydroimidazo[1,5-a]pyrazin-7(8H)-yl)ethan-1-one]
> 10 µM	18 nM	CNC(=O)N1CCn2c(C3CCN(C(C)=O)CC3)nc(-c3ccc4c(c3)c(-c3cnn(C)c3)nn4C)c2C1 [Example 55, 3-(1-acetylpiperidin-4-yl)-N-methyl-1-(1-methyl-3-(1-methyl-1H-pyrazol-4-yl)-1H-indazol-5-yl)-5,6-dihydroimidazo[1,5-a]pyrazine-7(8H)-carboxamide]
> 10 µM	22 nM	CNC(=O)N1CCn2c(C3CCN(C)CC3)nc(-c3ccc4c(c3)c(-c3cnn(C)c3)nn4C)c2C1 [Example 56, N-methyl-1-(1-methyl-3-(1-methyl-1H-pyrazol-4-yl)-1H-indazol-5-yl)-3-(1-methylpiperidin-4-yl)-5,6-dihydroimidazo[1,5-a]pyrazine-7(8H)-carboxamide]
5.97 µM	1 nM	CNC(=O)c1ccc(-c2cc3cccc(-c4nc(C5CCOCC5)n5c4CN(C(=O)NC)CC5)c3cn2)cn1 [Example 57, N-methyl-1-(3-(6-(methylcarbamoyl)pyridin-3-yl)isoquinolin-8-yl)-3-(tetrahydro-2H-pyran-4-yl)-5,6-dihydroimidazo[1,5-a]pyrazine-7(8H)-carboxamide]
> 10 µM	49 nM	CNC(=O)N1CCn2c(C3CC(F)(F)C3)nc(-c3cccc4nc(-c5cnn(C)c5)c(C(F)F)cc34)c2C1 [Example 58, 3-(3,3-difluorocyclobutyl)-1-(3-(difluoromethyl)-2-(1-methyl-1H-pyrazol-4-yl)quinolin-5-yl)-N-methyl-5,6-dihydroimidazo[1,5-a]pyrazine-7(8H)-carboxamide]
19 µM	5 nM	CNC(=O)N1CCn2c(C3CCC(F)(F)CC3)nc(-c3cccc4nc(-c5cnn(C)c5)c(C(F)F)cc34)c2C1 [Example 59, 3-(4,4-difluorocyclohexyl)-1-(3-(difluoromethyl)-2-(1-methyl-1H-pyrazol-4-yl)quinolin-5-yl)-N-methyl-5,6-dihydroimidazo[1,5-a]pyrazine-7(8H)-carboxamide]
15.8 µM	18 nM	CNC(=O)N1CCn2c(C3CC3(F)F)nc(-c3cccc4nc(-c5cnn(C)c5)c(C(F)F)cc34)c2C1 (stereo not shown) [Example 60, 3-(2,2-difluorocyclopropyl)-1-(3-(difluoromethyl)-2-(1-methyl-1H-pyrazol-4-yl)quinolin-5-yl)-N-methyl-5,6-dihydroimidazo[1,5-a]pyrazine-7(8H)-carboxamide]
